Measured values reported in PMC8213057, “Targeting ALK2: An Open Science Approach to Developing Therapeutics for the Treatment of Diffuse Intrinsic Pontine Glioma” (Journal of Medicinal Chemistry, 2020).

Tests used:
AXL = biological target: T1, AXL (Homo sapiens, UniProt P30530); details: 1 μM; Run 1, Run 2
T1 sequence (P30530 26-894): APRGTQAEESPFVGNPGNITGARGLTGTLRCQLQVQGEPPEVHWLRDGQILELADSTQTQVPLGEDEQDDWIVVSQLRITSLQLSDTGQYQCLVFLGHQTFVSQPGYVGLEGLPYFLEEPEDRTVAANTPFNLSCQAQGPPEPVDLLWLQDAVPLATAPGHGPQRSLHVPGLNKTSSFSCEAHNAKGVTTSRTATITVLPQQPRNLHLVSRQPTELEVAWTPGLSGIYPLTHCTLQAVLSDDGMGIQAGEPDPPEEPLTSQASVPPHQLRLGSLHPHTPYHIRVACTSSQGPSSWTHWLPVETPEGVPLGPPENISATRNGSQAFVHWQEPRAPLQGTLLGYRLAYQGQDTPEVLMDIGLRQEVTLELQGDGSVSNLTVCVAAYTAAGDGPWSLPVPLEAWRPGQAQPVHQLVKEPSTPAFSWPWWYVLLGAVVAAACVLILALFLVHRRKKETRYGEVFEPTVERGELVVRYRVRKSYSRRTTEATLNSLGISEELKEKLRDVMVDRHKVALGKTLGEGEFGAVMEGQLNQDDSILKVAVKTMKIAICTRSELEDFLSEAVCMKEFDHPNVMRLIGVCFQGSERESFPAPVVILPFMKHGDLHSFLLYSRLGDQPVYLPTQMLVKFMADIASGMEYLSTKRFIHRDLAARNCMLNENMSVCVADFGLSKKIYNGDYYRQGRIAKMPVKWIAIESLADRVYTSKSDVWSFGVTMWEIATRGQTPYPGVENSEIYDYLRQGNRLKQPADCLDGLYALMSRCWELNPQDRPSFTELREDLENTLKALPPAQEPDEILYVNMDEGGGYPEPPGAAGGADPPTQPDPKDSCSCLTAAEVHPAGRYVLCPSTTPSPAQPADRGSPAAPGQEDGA

EPHB1 = biological target: T2, EPHB1 (Homo sapiens, UniProt P54762); details: 1 μM; Run 1, Run 2
T2 sequence (P54762 18-984): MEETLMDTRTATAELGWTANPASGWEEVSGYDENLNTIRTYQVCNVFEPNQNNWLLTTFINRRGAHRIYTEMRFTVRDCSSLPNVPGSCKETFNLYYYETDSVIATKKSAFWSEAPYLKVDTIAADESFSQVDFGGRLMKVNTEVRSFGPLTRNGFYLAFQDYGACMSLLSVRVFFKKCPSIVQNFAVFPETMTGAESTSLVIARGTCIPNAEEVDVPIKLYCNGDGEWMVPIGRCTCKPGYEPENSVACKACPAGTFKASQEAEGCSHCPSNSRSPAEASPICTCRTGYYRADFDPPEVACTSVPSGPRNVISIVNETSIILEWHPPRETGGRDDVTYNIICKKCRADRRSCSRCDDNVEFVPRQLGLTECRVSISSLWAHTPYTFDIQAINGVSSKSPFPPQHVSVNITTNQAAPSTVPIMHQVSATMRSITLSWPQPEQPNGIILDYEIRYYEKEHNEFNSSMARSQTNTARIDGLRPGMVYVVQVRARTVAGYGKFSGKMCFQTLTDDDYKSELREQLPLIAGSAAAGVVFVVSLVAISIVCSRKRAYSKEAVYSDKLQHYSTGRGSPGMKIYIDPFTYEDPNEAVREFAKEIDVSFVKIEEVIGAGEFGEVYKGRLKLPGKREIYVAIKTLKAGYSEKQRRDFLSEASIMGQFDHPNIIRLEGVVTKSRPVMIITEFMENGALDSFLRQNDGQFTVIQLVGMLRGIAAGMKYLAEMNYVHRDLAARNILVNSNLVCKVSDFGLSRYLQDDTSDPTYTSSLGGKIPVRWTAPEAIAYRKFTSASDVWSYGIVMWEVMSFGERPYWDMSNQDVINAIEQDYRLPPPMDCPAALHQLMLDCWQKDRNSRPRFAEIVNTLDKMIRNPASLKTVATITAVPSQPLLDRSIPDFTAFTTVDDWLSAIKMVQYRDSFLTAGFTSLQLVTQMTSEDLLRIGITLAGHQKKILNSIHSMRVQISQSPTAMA

PAK5 = PAK5 (Homo sapiens, UniProt Q9P286); details: 1 μM; Run 1, Run 2
PDGFRa = PDGFRa (Homo sapiens, UniProt P16234); details: 1 μM; Run 1, Run 2
AKT2 = AKT2 (Homo sapiens, UniProt P31751); test: biochemical; details: read-out: % enzyme activity, 1 μM; Run 1, Run 2
FRK/PTK5 = FRK/PTK5 (Homo sapiens, UniProt P42685); test: biochemical; details: read-out: % enzyme activity, 1 μM; Run 1, Run 2
GRK1 = biological target: T3, GRK1 (Homo sapiens, UniProt Q15835); test: biochemical; details: read-out: % enzyme activity, 1 μM; Run 1, Run 2
T3 sequence (Q15835 1-563): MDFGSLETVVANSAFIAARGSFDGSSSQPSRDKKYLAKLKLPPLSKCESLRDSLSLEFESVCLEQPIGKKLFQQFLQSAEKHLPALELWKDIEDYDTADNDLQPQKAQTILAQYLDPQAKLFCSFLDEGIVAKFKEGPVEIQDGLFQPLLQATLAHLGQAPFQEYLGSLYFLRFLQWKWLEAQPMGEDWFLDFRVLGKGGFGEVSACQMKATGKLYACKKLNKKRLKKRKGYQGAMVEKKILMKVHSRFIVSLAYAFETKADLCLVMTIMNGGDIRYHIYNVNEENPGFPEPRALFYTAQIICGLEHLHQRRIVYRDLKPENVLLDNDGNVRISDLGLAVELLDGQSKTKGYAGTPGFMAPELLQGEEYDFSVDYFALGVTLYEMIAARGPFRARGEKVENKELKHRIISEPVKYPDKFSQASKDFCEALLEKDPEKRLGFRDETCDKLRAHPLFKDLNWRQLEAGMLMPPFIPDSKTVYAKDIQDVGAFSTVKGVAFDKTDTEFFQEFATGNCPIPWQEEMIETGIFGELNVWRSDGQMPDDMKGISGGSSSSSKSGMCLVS

PDGFRa, sequence (P16234 24-1089): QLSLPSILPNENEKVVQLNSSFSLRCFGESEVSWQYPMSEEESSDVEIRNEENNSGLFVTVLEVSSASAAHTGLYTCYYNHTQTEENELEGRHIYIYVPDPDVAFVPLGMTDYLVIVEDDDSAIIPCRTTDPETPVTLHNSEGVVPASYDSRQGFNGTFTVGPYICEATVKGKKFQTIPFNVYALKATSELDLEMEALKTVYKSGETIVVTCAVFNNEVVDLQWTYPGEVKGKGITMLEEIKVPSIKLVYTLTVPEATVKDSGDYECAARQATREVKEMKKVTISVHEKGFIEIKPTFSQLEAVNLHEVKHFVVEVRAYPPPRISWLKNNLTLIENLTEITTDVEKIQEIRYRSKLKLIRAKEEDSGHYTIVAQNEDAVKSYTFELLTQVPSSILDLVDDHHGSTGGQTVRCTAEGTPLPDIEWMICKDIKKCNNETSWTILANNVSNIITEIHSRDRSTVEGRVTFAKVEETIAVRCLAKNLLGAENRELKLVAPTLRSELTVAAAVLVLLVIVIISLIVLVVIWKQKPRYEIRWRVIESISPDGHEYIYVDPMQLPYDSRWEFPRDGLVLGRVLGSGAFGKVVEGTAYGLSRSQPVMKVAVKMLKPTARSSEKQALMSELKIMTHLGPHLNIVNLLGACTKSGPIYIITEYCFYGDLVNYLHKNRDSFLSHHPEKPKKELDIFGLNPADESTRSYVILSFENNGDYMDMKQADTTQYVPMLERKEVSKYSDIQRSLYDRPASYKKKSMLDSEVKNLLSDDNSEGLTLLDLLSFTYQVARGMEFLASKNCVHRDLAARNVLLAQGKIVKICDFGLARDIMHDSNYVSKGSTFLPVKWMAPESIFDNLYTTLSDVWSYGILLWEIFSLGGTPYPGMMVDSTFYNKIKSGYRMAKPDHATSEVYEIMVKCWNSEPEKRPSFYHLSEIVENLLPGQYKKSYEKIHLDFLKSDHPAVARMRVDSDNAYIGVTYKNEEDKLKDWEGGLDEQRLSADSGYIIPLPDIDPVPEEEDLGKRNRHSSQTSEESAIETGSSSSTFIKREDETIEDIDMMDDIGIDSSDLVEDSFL
FRK/PTK5, sequence (P42685 whole entry): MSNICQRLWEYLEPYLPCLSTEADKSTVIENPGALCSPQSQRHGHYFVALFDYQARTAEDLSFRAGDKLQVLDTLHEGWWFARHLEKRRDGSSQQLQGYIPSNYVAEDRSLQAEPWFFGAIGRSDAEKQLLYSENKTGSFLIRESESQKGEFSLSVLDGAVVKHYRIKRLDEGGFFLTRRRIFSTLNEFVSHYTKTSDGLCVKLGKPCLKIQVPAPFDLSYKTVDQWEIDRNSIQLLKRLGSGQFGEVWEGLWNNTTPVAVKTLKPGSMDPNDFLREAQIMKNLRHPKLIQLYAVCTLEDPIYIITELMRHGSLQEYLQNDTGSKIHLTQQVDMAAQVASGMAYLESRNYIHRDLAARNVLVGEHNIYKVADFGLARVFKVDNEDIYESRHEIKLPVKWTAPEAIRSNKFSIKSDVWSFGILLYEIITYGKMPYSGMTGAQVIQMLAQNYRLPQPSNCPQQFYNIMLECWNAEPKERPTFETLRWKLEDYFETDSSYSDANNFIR
AKT2, sequence (P31751 whole entry): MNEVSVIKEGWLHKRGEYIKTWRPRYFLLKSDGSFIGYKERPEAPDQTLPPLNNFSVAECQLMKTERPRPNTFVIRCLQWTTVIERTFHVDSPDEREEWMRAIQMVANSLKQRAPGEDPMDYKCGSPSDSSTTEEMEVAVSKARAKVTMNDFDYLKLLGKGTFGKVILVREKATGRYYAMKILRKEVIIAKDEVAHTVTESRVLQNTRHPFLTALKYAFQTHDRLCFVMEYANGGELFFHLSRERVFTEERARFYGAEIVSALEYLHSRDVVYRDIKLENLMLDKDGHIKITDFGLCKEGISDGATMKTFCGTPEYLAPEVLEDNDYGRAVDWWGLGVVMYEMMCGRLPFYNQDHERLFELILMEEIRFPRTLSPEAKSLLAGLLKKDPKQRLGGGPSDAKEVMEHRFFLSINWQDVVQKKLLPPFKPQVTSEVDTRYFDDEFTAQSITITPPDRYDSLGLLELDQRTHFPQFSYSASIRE
PAK5, sequence (Q9P286 whole entry): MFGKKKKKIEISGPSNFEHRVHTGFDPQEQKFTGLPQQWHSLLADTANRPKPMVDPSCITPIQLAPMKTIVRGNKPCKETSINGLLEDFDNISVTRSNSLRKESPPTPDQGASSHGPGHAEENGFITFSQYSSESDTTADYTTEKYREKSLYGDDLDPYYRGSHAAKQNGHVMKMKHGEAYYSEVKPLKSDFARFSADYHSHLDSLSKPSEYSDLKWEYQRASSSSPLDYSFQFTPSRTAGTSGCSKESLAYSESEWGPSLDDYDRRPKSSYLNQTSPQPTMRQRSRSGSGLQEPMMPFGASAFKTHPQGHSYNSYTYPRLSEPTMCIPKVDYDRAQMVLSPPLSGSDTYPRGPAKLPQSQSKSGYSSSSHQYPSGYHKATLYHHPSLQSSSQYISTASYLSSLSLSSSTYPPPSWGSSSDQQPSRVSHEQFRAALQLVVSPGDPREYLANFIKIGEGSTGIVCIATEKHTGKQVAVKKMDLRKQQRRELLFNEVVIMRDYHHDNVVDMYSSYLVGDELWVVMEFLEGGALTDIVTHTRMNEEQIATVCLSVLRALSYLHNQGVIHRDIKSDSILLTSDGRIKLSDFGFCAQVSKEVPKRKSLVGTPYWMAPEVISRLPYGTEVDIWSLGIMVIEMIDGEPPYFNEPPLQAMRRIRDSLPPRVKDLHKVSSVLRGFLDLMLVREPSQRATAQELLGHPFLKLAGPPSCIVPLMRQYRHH

Compound: COc1cc(-c2cncc(-c3ccc(N4CCN(C)CC4)cc3)c2C)cc(F)c1C(N)=O [Compound 26a, 2-Fluoro-6-methoxy-4-(4-methyl-5-(4-(4-methylpiperazin-1-yl)phenyl)pyridin-3-yl)benzamide]
- % enzyme activity (AXL): 81.59%
- % enzyme activity (EPHB1): 91.99%
- % enzyme activity (PAK5): 92.74%
- % enzyme activity (PDGFRa): 81.22%
- remaining activity at 1 µM (AKT2): 91.9%
- remaining activity at 1 µM (FRK/PTK5): 101%
- remaining activity at 1 µM (GRK1): 94%

Compound: COc1cc(-c2cncc(-c3ccc(N4C[C@@H](C)N(C)[C@@H](C)C4)cc3)c2C)cc(F)c1C(N)=O [Compound 26c, 2-Fluoro-6-methoxy-4-(4-methyl-5-(4-((3R,5S)-3,4,5-trimethylpiperazin-1-yl)phenyl)pyridin-3-yl)benzamide]
- % enzyme activity (AXL): 86.95%
- % enzyme activity (EPHB1): 89.37%
- % enzyme activity (PAK5): 94.99%
- % enzyme activity (PDGFRa): 81.08%
- remaining activity at 1 µM (AKT2): 93%
- remaining activity at 1 µM (FRK/PTK5): 98.2%
- remaining activity at 1 µM (GRK1): 95.3%
